According to US20180256673A1, “METHODS FOR TREATING FUNGAL INFECTIONS” (priority 2015, published 2018):
Converted amounts (≈) assume the structure as drawn. Read-outs that look alike come from different tables or passages of the source. Starred links: 1 amine or outer side, 2 acyl side, 3 side chain; linkers in the order of their positions; H or OH if unused. Positions of bridges follow the written chain, without caps; N, C: chain ends. Non-standard residues stand in square brackets, D forms with d. Residues, ends and D or L forms follow the SMILES beside them. *: point of attachment. pTerphenylCO(4''-OnC5H11) = CCCCCOc1ccc(-c2ccc(-c3ccc(C(=O)*)cc3)cc2)cc1; Orn(4R-OH,5R-OH) = O=C([C@H](C[C@@H](O)[C@@H](O)N[*:3])N[*:1])[*:2]; hTyr(3S-OH,4S-OH) = N[C@H](C(=O)O)[C@H](O)[C@@H](O)c1ccc(O)cc1; Pro(3S-OH,4S-Me) = C[C@H]1CN[C@H](C(=O)O)[C@H]1O; Hyp = O=C(O)[C@@H]1C[C@@H](O)CN1

Experiments:
Candida glabrata = assay: microbe, parasite or virus in culture; format: cell-based
Candida krusei = assay: Broth microdilution of invasive fungal isolates (CLSI M27-A3/M38-A2); format: cell-based
Candida dubliniensis = assay: as above; format: cell-based
[1] = system: Cryptococcus neoformans var. grubii; assay: as above; format: cell-based
Aspergillus fumigatus = assay: Broth microdilution of invasive fungal isolates (CLSI M27-A3/M38-A2), MEC; format: cell-based; conditions: 56 isolates
[2] = system: C. glabrata ATCC 90030, ATCC 2001; assay: Broth microdilution MIC (CLSI), Examples 3 and 4; conditions: Nakaseomyces glabratus
Description: (§1) Antifungal susceptibility testing. Candida strains were cultured aerobically at 35° C. on SDA plates or in RPMI 1640 broth (pH 7.0). […] MIC assays were performed in triplicate.

C. krusei ATCC 6258 = assay: Broth microdilution MIC (CLSI), Examples 3 and 4; conditions: Pichia kudriavzevii, ATCC6258, 24 h, read-out: Broth MIC
Description: as §1

CCCCCOc1ccc(-c2ccc(-c3ccc(C(=O)N[C@H]4C[C@@H](O)[C@@H](O)NC(=O)[C@@H]5[C@@H](O)[C@@H](C)CN5C(=O)[C@H]([C@@H](C)O)NC(=O)[C@H]([C@H](O)[C@@H](O)c5ccc(O)cc5)NC(=O)[C@@H]5C[C@@H](O)CN5C(=O)[C@H]([C@@H](C)O)NC4=O)cc3)cc2)cc1 [ANID, anidulafungin] ({pTerphenylCO(4''-OnC5H11)}-[Orn(4R-OH,5R-OH)]T[Hyp][hTyr(3S-OH,4S-OH)]T[Pro(3S-OH,4S-Me)]; lactam 1-C) was tested, and the “Cumulative % of isolates inhibited at MIC 4 μg/mL” value (Candida glabrata) was “(100.0) %”, the “Cumulative % of isolates inhibited at MIC ≤0.008 μg/mL” value (Candida glabrata) was “(1.0) %” and the “Number of isolates inhibited at MIC 0.015 μg/mL” value (Candida glabrata) was 0. The “Number of isolates inhibited at MIC 0.03 μg/mL” value (Candida glabrata) was 11, the “Number of isolates inhibited at MIC 0.06 μg/mL” value (Candida glabrata) was 62 and the “Number of isolates inhibited at MIC 0.12 μg/mL” value (Candida glabrata) was 21. The “Number of isolates inhibited at MIC 0.25 μg/mL” value (Candida glabrata) was 0, the “Number of isolates inhibited at MIC 0.5 μg/mL” value (Candida glabrata) was 0 and the “Number of isolates inhibited at MIC 1 μg/mL” value (Candida glabrata) was 0. For the same compound, the “Number of isolates inhibited at MIC 2 μg/mL” value (Candida glabrata) was 3, the “Number of isolates inhibited at MIC 4 μg/mL” value (Candida glabrata) was 2 and the “Number of isolates inhibited at MIC ≤0.008 μg/mL” value (Candida glabrata) was 1. It also gave an MIC50 (Candida glabrata; Nakaseomyces glabratus, read-out: MIC50) of 0.06 µg/mL (≈ 0.0526 µM), an MIC90 (Candida glabrata; Nakaseomyces glabratus, read-out: MIC90) of 0.12 µg/mL (≈ 0.105 µM) and an MIC (Candida glabrata; Nakaseomyces glabratus, read-out: MIC according to CLSI method) of 2 µg/mL (≈ 1.75 µM). The MIC (Candida glabrata; Nakaseomyces glabratus, read-out: MIC results) was 2 to 4 µg/mL (≈ 1.75 to 3.51 µM), the “MIC according to CLSI method” value (Candida glabrata; listed as ANF) was 4 µg/mL (≈ 3.51 µM) and the “Cumulative % of isolates inhibited at MIC 0.015 μg/mL” value (Candida krusei; 16 isolates) was 6.2%. The “Cumulative % of isolates inhibited at MIC 0.03 μg/mL” value (Candida krusei; 16 isolates) was “(43.8) %”, the “Cumulative % of isolates inhibited at MIC 0.06 μg/mL” value (Candida krusei; 16 isolates) was “(100.0) %” and the “Number of isolates inhibited at MIC 0.015 μg/mL” value (Candida krusei; 16 isolates) was 1. For the same compound, the “Number of isolates inhibited at MIC 0.03 μg/mL” value (Candida krusei; 16 isolates) was 6, the “Number of isolates inhibited at MIC 0.06 μg/mL” value (Candida krusei; 16 isolates) was 9 and the MIC50 (Candida krusei; Pichia kudriavzevii) was 0.06 µg/mL (≈ 0.0526 µM). The MIC90 (Candida krusei; Pichia kudriavzevii) was 0.06 µg/mL (≈ 0.0526 µM), the “Cumulative % of isolates inhibited at MIC 0.015 μg/mL” value (Candida dubliniensis; 11 isolates) was “(9.1) %” and the “Cumulative % of isolates inhibited at MIC 0.03 μg/mL” value (Candida dubliniensis; 11 isolates) was “(36.4) %”. The “Cumulative % of isolates inhibited at MIC 0.06 μg/mL” value (Candida dubliniensis; 11 isolates) was “(100.0) %”, the “Number of isolates inhibited at MIC 0.015 μg/mL” value (Candida dubliniensis; 11 isolates) was 1 and the “Number of isolates inhibited at MIC 0.03 μg/mL” value (Candida dubliniensis; 11 isolates) was 3. The “Number of isolates inhibited at MIC 0.06 μg/mL” value (Candida dubliniensis; 11 isolates) was 7, the MIC50 (Candida dubliniensis; Candida dubliniensis) was 0.06 µg/mL (≈ 0.0526 µM) and the MIC90 (Candida dubliniensis; Candida dubliniensis) was 0.06 µg/mL (≈ 0.0526 µM). For the same compound, the “Cumulative % of isolates inhibited at MIC >8 μg/mL” value ([1]; 19 isolates) was “(100.0) %”, the “Number of isolates inhibited at MIC >8 μg/mL” value ([1]; 19 isolates) was 19 and the MIC50 ([1]; Cryptococcus neoformans) was 8 µg/mL (≈ 7.02 µM). For the same compound, the MIC90 ([1]; Cryptococcus neoformans) was 8 µg/mL (≈ 7.02 µM), the “Cumulative % of isolates inhibited at MEC 0.015 μg/mL” value (Aspergillus fumigatus) was “(91.1) %” and the “Cumulative % of isolates inhibited at MEC 0.03 μg/mL” value (Aspergillus fumigatus) was “(100.0) %”. For the same compound, the “Cumulative % of isolates inhibited at MEC ≤0.008 μg/mL” value (Aspergillus fumigatus) was “(53.6) %”, the MEC50 (Aspergillus fumigatus) was 0.008 µg/mL and the “Number of isolates inhibited at MEC 0.015 μg/mL” value (Aspergillus fumigatus) was 21. For the same compound, the “Number of isolates inhibited at MEC 0.03 μg/mL” value (Aspergillus fumigatus) was 5, the “Number of isolates inhibited at MEC ≤0.008 μg/mL” value (Aspergillus fumigatus) was 30 and the MIC ([2]; ATCC2001|ATCC90030, 24 h, read-out: Broth MIC, ATCC 2001 wild-type, 24 h, ~50% inhibition) was 0.06 µg/mL (≈ 0.0526 µM). The MIC ([2]; ATCC2001|ATCC90030, 24 h, read-out: Broth MIC, ATCC 90030 wild-type, 24 h, ~50% inhibition) was 0.06 µg/mL (≈ 0.0526 µM), the MIC ([2]; ATCC2001|ATCC90030, ATCC 2001 spontaneous mutant, Fks2 HS1 D666N) was 0.5 µg/mL (≈ 0.438 µM) and the MIC ([2]; ATCC2001|ATCC90030, ATCC 2001 spontaneous mutant, Fks2 HS1 D666Y) was 0.5 µg/mL (≈ 0.438 µM). For the same compound, the MIC ([2]; ATCC2001|ATCC90030, ATCC 2001 spontaneous mutant, Fks2 HS1 R665G) was 0.5 µg/mL (≈ 0.438 µM), the MIC ([2]; ATCC2001|ATCC90030, ATCC 2001 spontaneous mutant, Fks2 HS1 S663F) was 1 µg/mL (≈ 0.877 µM) and the MIC ([2]; ATCC2001|ATCC90030, ATCC 2001 spontaneous mutant, Fks2 HS1 ΔF659) was 4 µg/mL (≈ 3.51 µM). The MIC ([2]; ATCC2001|ATCC90030, ATCC 2001 spontaneous mutant, Fks2 HS2 R1378S) was 0.25 µg/mL (≈ 0.219 µM), the MIC ([2]; ATCC2001|ATCC90030, ATCC 90030 spontaneous mutant, Fks2 HS1 D666H) was 1 µg/mL (≈ 0.877 µM) and the MIC ([2]; ATCC2001|ATCC90030, ATCC 90030 spontaneous mutant, Fks2 HS1 ΔF659) was 2 µg/mL (≈ 1.75 µM). For the same compound, the MIC (C. krusei ATCC 6258) was 0.06 µg/mL (≈ 0.0526 µM).
